According to ChEMBL document CHEMBL1155117, “Cyclobranol: a substrate for C25-methyl sterol side chains and potent mechanism-based inactivator of plant sterol methyltransferase” (Bioorg Med Chem Lett, 2008):

Experiments:
Glycine max [1] = assay: Activity of soybean sterol C24-methyltransferase 1
[2] = Inhibition of soybean sterol C24-methyltransferase 1; parameters: species or system Glycine max
Glycine max [3] = assay: Ratio of Kcat to Kinact for soybean sterol C24-methyltransferase 1
[4] = Inhibition of sunflower sterol C24-methyltransferase 1; parameters: species or system Helianthus annuus

| SMILES | Km (Glycine max [1]) | kcat (Glycine max [1]) | Ki [2] | Ratio (Glycine max [3]) | Ki [4] |
| --- | --- | --- | --- | --- | --- |
| CC(C)=CCC[C@@H](C)[C@H]1CC[C@@]2(C)[C@@H]3CC[C@H]4C(C)(C)[C@@H](O)CC[C@@]45C[C@@]35CC[C@]12C | 30 µM | 0.001 s⁻¹ | – | – | – |
| CC(C)=C(C)CC[C@@H](C)[C@H]1CC[C@@]2(C)[C@@H]3CC[C@H]4C(C)(C)[C@@H](O)CC[C@@]45C[C@@]35CC[C@]12C [CYCLOBRANOL] | 37 µM | 0.0001 s⁻¹ | 25 µM | 0.04 | 100 µM |
